Experimental data taken from the SangsterLogP compilation.

How the values were obtained:
[1] = method code G, from Hansch, C., Leo, A., & Hoekman, D. (1995). Exploring QSAR: hydrophobic, electronic, and steric constants (Vol. 2). Washington, DC: American Chemical Society.
[2] = method code SF-HPLC, from Hansch, C., Leo, A., & Hoekman, D. (1995). Exploring QSAR: hydrophobic, electronic, and steric constants (Vol. 2). Washington, DC: American Chemical Society.; settings: pH 7.4
[3] = method code SF-AS, from Hansch, C., Leo, A., & Hoekman, D. (1995). Exploring QSAR: hydrophobic, electronic, and steric constants (Vol. 2). Washington, DC: American Chemical Society.

Row | SMILES | logP [1] | also measured
1 | CCC(=O)C(Cc1ccccc1)S(=O)(=O)c1ccc(C)cc1 (centres undefined) | 2.45 | –
2 | CCC(=O)C(Cc1ccc(Cl)cc1)S(=O)(=O)c1ccc(C)cc1 (centres undefined) | 3.43 | –
3 | CCC(=O)C(Cc1ccc(C)cc1)S(=O)(=O)c1ccccc1 (centres undefined) | 2.7 | –
4 | COc1ccc2cc(C(C)C(=O)OC(O)C(=O)N(C)CCO)ccc2c1 (centres undefined) | – | logD [2]: 2.01
5 | CCC(=O)C(Cc1ccc(Cl)cc1)S(=O)(=O)c1ccccc1 (centres undefined) | 2.69 | –
6 | O=C(Cn1c(=O)sc2ccc(Cl)cc21)N1CC[N+]([O-])(CCO)CC1 | – | logD ([3]; pH 7.4): 0.05
7 | c1ccc2c(c1)OCCOCCOc1ccccc1OCCO2 | – | logP [3]: 2.21
8 | CCC(=O)C(Cc1ccc(OC)cc1)S(=O)(=O)c1ccc(C)cc1 (centres undefined) | 2.47 | –
9 | CC(C)(C)c1ccc2c(c1)OCCOCCOCCOCCOc1cc(C(C)(C)C)ccc1OCCOCCOCCOCCO2 | – | logP [3]: 3.32
10 | Cc1ccc(NN=C(C#N)C#N)c([N+](=O)[O-])c1 | – | logD ([3]; pH 7.2): 2.5
11 | CCC(=O)C(Cc1ccccc1)S(=O)(=O)c1ccccc1 (centres undefined) | 1.82 | –
12 | CC1=NN(CCOc2ccc3ccccc3c2)C(=O)C1 | – | logD ([3]; pH 6.4): 2.74
13 | CCC(=O)C(Cc1ccc(C)cc1)S(=O)(=O)c1ccc(C)cc1 (centres undefined) | 3.3 | –
14 | O=C(NP(=O)(N1CC1)N1CC1)c1ccc(Br)cc1 | – | logD ([3]; pH 7.4): 0.97
